Reference: patent publication US20140315972A1, “RS)-2-(2-oxo-4-phenylpyrrolidin-1-yl)acetamide compound having modulatory activity with a commensurate effect, pharmaceutical substance (variants) and its application, composition (variants) thereof” (priority 2011, published 2014)
Marks after values point to notes of the source that are not given here.

Tests used:
cats = format: in vivo; conditions: anesthetized cats; single i.v.; 100 mg/kg (title)
rats = experiment: Ischemic stroke (middle cerebral artery occlusion), McGrow scale; format: in vivo
Text: The stroke condition was simulated in male rats (270-320 g) at a local cerebral hemorrhage, as a hemorrhagic stroke (intracerebral post-traumatic hematoma) by the method of A. N. Makarenko et al (1990) and at cerebral ischemia with distal occlusion of the middle cerebral artery (Chen S. T., Hsu C. Y., Hogan E. L., Maricq H., Balentine J. D. A model of focal ischemic stroke in the rat reproducible extensive cortical infarction//Stroke.—1989, V. 17, No 4, p. 738-743) as an ischemic stroke. Phenotropil was injected intraperitoneally at hemorrhagic stroke at 100 mg/kg immediately after surgery, and one hour before and two hours after the surgery (at doses of 100, 200 and 300 mg/kg) at ischemic stroke. Control animals were treated adequately with distilled water.

influenza = experiment: Respiratory viral infection (influenza) of mice during life duration study; format: in vivo; conditions: influenza outbreak
patients = experiment: Acneiform rash, topical solution; format: in vivo, human; conditions: for Efficacy expressed in % (acne rush during hormonal alteration): humans, topically 0.1% aqueous solution, baseline control = 100
Procedure: A study of effect of Phenotropil on the scalp and face skin in seborrhea oleosa and on the scalp skin in dry seborrhea, as well in the mixed form, was performed on mixed groups of both sexes (15-37 years). The 0.1% Phenotropil solution was used. In the group with mixed form, additional Phenotropil tablets were administered at a dose of 100 mg per day (in the morning). The baseline examinations were used as control. The prepared samples were rubbed into the scalp once a day 1 or 2 hours before bedtime. In the case of acneiform rash, the skin was wiped in the morning and evening by cotton pads soaked (as usual lotion) by 0.1% aqueous Phenotropil. Washing the hair using shampoo was not recommended. A neutral baby soap “Alice” by OAO Svoboda and the rinse prepared with 25 ml of lemon juice and 100 mg Phenotropil powder per 1000.0 ml water were used. Studies were conducted for 28 calendar days with monitoring examinations every 14 days. In the dry seborrhea group, three patients withdrew from the study after two weeks due to reluctance to undergo further examination; they found it difficult to comply with the regime of the detergents use. The skin state was assessed by a 4-point system, where 0—absent, 1—the effect intensity less than 50.0%, 2—the effect intensity more than 50.0%, 3—the effect intensity more than 80% but less than 100.0% of the cases.

Solubility = format: physicochemical
Text: The crystalline powder of the Phenotropil substances is not volatile, has white, rarely white to slightly yellowish or slightly cream color, bitter taste (bitter taste that disappears in the mouth rather quickly after dissolution, leaving no unpleasant sensations). In the related products, the bitter taste persists. The Compounds are sparingly soluble in water and saline, moderately soluble in 96.0% alcohol and chloroform. Readily soluble in water and saline under heating, but the solutions are not stable during cooling and storage under normal conditions (not more than 2 hours, which is acceptable for the extemporaneous preparations and research), moderately soluble in 5.0% glucose solution, dissolve well in the presence of solubilizers and emulsifiers. Tween80 and cyclodextrins increase solubility in water, especially Tween80, while cyclodextrins have limitations by concentration. Sterile 0.001-3% solutions of Phenotropil in the presence of cyclodextrin or Tween (water for injection, Phenotropil, cyclodextrin (or Tween solution) were thoroughly stirred for 30 minutes, filtered, dispensed into ampoules of neutral glass, the ampoules were sealed and sterilized for 15 minutes at 120° C.). Sterile solutions are storage stable for at least 12 months. The ultimate shelf life is not specified; the samples are being stored.

[1] = 100 mg/kg i.p. after MCAO, first day
[2] = 100 mg/kg i.p. after MCAO, second day
[3] = 100 mg/kg i.p. after MCAO, third day
[4] = 100 mg/kg i.p. before MCAO, first day
[5] = 100 mg/kg i.p. before MCAO, second day
[6] = 100 mg/kg i.p. before MCAO, third day
[7] = 200 mg/kg i.p. after MCAO, first day
[8] = 200 mg/kg i.p. after MCAO, second day
[9] = 200 mg/kg i.p. after MCAO, third day
[10] = 200 mg/kg i.p. before MCAO, first day
[11] = 200 mg/kg i.p. before MCAO, second day
[12] = 200 mg/kg i.p. before MCAO, third day
[13] = 300 mg/kg i.p. after MCAO, first day
[14] = 300 mg/kg i.p. after MCAO, second day
[15] = 300 mg/kg i.p. after MCAO, third day
[16] = 300 mg/kg i.p. before MCAO, first day
[17] = 300 mg/kg i.p. before MCAO, second day
[18] = 300 mg/kg i.p. before MCAO, third day

What does the source list for `NC(=O)CN1CC(c2ccccc2)CC1=O` (racemic) [Compound 1, (RS)-2-(2-oxo-4-phenylpyrrolidine-1-yl)acetamide]?
CCA blood flow (1-2 min) vs background (cats): +26.0%; SBP (1-2 min) vs background (cats): −24.0%; SBP (at 4 min) vs background (cats): +14%; VPR (at 5 min) vs background (cats): −46.0%; animals (out of 10) with circling movements (rats; [1]): 0*; animals (out of 10) with lethargy, slowness of functions (rats; [1]): 4*; animals (out of 10) with tremor (rats; [1]): 2*; animals (out of 10) with unilateral hemiptosis (rats; [1]): 4; animals (out of 10) with circling movements (rats; [2]): 0*; animals (out of 10) with lethargy, slowness of functions (rats; [2]): 3*; animals (out of 10) with tremor (rats; [2]): 0*; animals (out of 10) with unilateral hemiptosis (rats; [2]): 5; animals (out of 10) with circling movements (rats; [3]): 0; animals (out of 10) with lethargy, slowness of functions (rats; [3]): 2*; animals (out of 10) with tremor (rats; [3]): 0; animals (out of 10) with unilateral hemiptosis (rats; [3]): 3; animals (out of 10) with circling movements (rats; [4]): 0*; animals (out of 10) with lethargy, slowness of functions (rats; [4]): 2*; animals (out of 10) with tremor (rats; [4]): 2*; animals (out of 10) with unilateral hemiptosis (rats; [4]): 4; animals (out of 10) with circling movements (rats; [5]): 0*; animals (out of 10) with lethargy, slowness of functions (rats; [5]): 1*; animals (out of 10) with tremor (rats; [5]): 0*; animals (out of 10) with unilateral hemiptosis (rats; [5]): 5; animals (out of 10) with circling movements (rats; [6]): 0; animals (out of 10) with lethargy, slowness of functions (rats; [6]): 1*; animals (out of 10) with tremor (rats; [6]): 0; animals (out of 10) with unilateral hemiptosis (rats; [6]): 3; animals (out of 10) with circling movements (rats; [7]): 0*; animals (out of 10) with lethargy, slowness of functions (rats; [7]): 4*; animals (out of 10) with tremor (rats; [7]): 2*; animals (out of 10) with unilateral hemiptosis (rats; [7]): 3; animals (out of 10) with circling movements (rats; [8]): 0*; animals (out of 10) with lethargy, slowness of functions (rats; [8]): 3*; animals (out of 10) with tremor (rats; [8]): 0*; animals (out of 10) with unilateral hemiptosis (rats; [8]): 4; animals (out of 10) with circling movements (rats; [9]): 0; animals (out of 10) with lethargy, slowness of functions (rats; [9]): 1*; animals (out of 10) with tremor (rats; [9]): 0; animals (out of 10) with unilateral hemiptosis (rats; [9]): 3; animals (out of 10) with circling movements (rats; [10]): 0*; animals (out of 10) with lethargy, slowness of functions (rats; [10]): 3*; animals (out of 10) with tremor (rats; [10]): 3*; animals (out of 10) with unilateral hemiptosis (rats; [10]): 4; animals (out of 10) with circling movements (rats; [11]): 0*; animals (out of 10) with lethargy, slowness of functions (rats; [11]): 2*; animals (out of 10) with tremor (rats; [11]): 0*; animals (out of 10) with unilateral hemiptosis (rats; [11]): 4; animals (out of 10) with circling movements (rats; [12]): 0; animals (out of 10) with lethargy, slowness of functions (rats; [12]): 0*; animals (out of 10) with tremor (rats; [12]): 0; animals (out of 10) with unilateral hemiptosis (rats; [12]): 3; animals (out of 10) with circling movements (rats; [13]): 0*; animals (out of 10) with lethargy, slowness of functions (rats; [13]): 4*; animals (out of 10) with tremor (rats; [13]): 3*; animals (out of 10) with unilateral hemiptosis (rats; [13]): 3; animals (out of 10) with circling movements (rats; [14]): 0*; animals (out of 10) with lethargy, slowness of functions (rats; [14]): 2*; animals (out of 10) with tremor (rats; [14]): 0*; animals (out of 10) with unilateral hemiptosis (rats; [14]): 5; animals (out of 10) with circling movements (rats; [15]): 0; animals (out of 10) with lethargy, slowness of functions (rats; [15]): 1*; animals (out of 10) with tremor (rats; [15]): 0; animals (out of 10) with unilateral hemiptosis (rats; [15]): 3; animals (out of 10) with circling movements (rats; [16]): 0*; animals (out of 10) with lethargy, slowness of functions (rats; [16]): 2*; animals (out of 10) with tremor (rats; [16]): 2*; animals (out of 10) with unilateral hemiptosis (rats; [16]): 4; animals (out of 10) with circling movements (rats; [17]): 0*; animals (out of 10) with lethargy, slowness of functions (rats; [17]): 1*; animals (out of 10) with tremor (rats; [17]): 0*; animals (out of 10) with unilateral hemiptosis (rats; [17]): 5; animals (out of 10) with circling movements (rats; [18]): 0; animals (out of 10) with lethargy, slowness of functions (rats; [18]): 0*; animals (out of 10) with tremor (rats; [18]): 0; animals (out of 10) with unilateral hemiptosis (rats; [18]): 3; surviving mice that did not get sick (influenza): 46%; surviving mice that had been ill but survived (influenza): 54%; mice died, total in treated groups (influenza; all control animals died): 15%; effect on acne rash (patients; 0.1% solution, one month): 79-84%; Efficacy expressed in % (acne rush during hormonal alteration) (patients; dry skin): −84 * %; Efficacy expressed in % (acne rush during hormonal alteration) (patients; oily skin): −79 * %; solubility in 96% alcohol and chloroform (Solubility): moderately soluble; solubility in water (and saline) (Solubility): sparingly soluble in water
